# Assay results: US6531464B1, “Methods for the treatment of neurodegenerative disorders using substituted phenanthridinone derivatives” (Inotek Pharmaceutical Corporation, priority 1999, dated 2003)
# Assays:
# TNF-α = experiment: LPS-stimulated J774 macrophages: TNF-α production; assay type: cell-based
# Source text: (§1) In in vitro studies, J774 macrophages were exposed to bacterial lipopolysaccharide (LPS), to induce pro-inflammatory mediator production and cytotoxicity. […] This assay (the LPS-stimulated macrophage) represents an in vitro model of an inflammatory situation. Agents that block inflammatory mediator production in this assay are expected to have anti-inflammatory or immunosuppressive effects in inflammatory or immune diseases.
# (§2) The half-maximal inhibitory effect (in μM) of various PJ compounds was assessed under a variety of conditions in immunostimulated J774 macrophages and in peroxynitrite-stimulated thymocytes. Macrophages or thymocytes were first treated with a chosen PJ compound for 30 min at a concentration ranging from 0.1 to 30 μM. The cells were then immunostimulated with LPS (10 μg/ml) or treated with peroxynitrite (30 μM). MIP production in the macrophages was measured at 3 h, TNF and nitric oxide were measured at 24 h, cell viability in the macrophages were measured at 24 h. PARS activation and cell death in thymocytes were measured at 6 h. Measurements of mediator production, PARS activation and cell death were essentially as described in Németh, et al., Eur J Pharmacol 339:215-221, 1997 and Virág and Szabó, Br J Pharmacol, 126: 769-777, 1999. Results in Table 2 are shown as EC50 values (half maximal inhibition of mediator production or restoration of cell viability; in μM): [mean±SEM of n=3-6 determinations].
# Balb/c mice = experiment: LPS-induced mortality (systemic inflammatory model); details: LPS 90 mg/kg intraperitoneally; pretreatment 20 mg/kg; over 24 h; 92% death without treatment
# Method: In order to substantiate the efficacy of the PJ series of compounds in inflammatory conditions, the effect of compounds according to the invention were tested in a systemic inflammatory model induced by bacterial lipopolysaccharide.
# Lewis rats = experiment: Heterotopic heart transplantation: coronary blood flow and myocardial performance; assay type: in vivo, rat; details: 3 mg/kg i.v.
# [1] = tested on: thoracic aortic rings from wild-type mice; experiment: High glucose induced endothelial dysfunction in isolated thoracic aortic rings; design: species or system mouse; details: 30 mM glucose 16 hours; co-incubation with PJ34 1 μM
# Method: Breeding pairs of mice for the PARS colony were a gift from Dr. Z. Q. Wang, International Agency for Research on Cancer Lyon, France. Thoracic aortae from PARS^−/− and PARS^+/+ mice (Wang et al., Genes Dev.9: 509-520, 1995) were harvested, cleared of periadvential fat, and cut into 3 or 4 pieces. […] Four different media preparations were used: a) normal glucose, i.e. 5 mM: in F-12K Nutrient Mixture medium (Gibco BRL—Life Technologies); b) Osmotic control, i.e. 30 mM L-glucose in F-12K medium; c) High glucose i.e. 30 mM D-glucose in F-12K medium; […].
# After incubation, aortic rings were mounted in organ baths filled with warmed and gas equilibrated Krebs' solution and endothelium dependent relaxant ability was evaluated as described above.
# thymocytes = experiment: Peroxynitrite-stimulated thymocytes: cell viability; assay type: cell-based
# Method: as §2
# [2] = tested on: streptozotocin diabetic mice; experiment: Streptozotocin induced diabetes: vascular function, glucose, insulin, immunostaining; assay type: in vivo, mouse
# Method: Male Balb/c mice were treated intraperitoneally (i.p.) with streptozotocin (240 mg/kg dissolved in citrate buffer) or vehicle (citrate buffer). Blood glucose was then monitored weekly over 8 weeks using a one-touch blood glucose meter (Lifescan). Hyperglycemia was defined as non-fasting blood glucose level higher than 200 mg/dL. Total glycated hemoglobin (GHb) content of blood samples was measured using a commercially available kit (Sigma Diagnostics) according to manufacturers instructions. […] The optical density of the two fractions was measured by spectrophotometry at 415 nm and the per cent glycated hemoglobin content was calculated as follows: GHb (%)=[…]/(E+[…]). Samples of pancreas were removed on week 8 and weighed before being placed into 6 ml of acid ethanol (23:7:0.45, ethanol:dH2O:HCl) and homogenized. The pancreas was incubated for 72 h at 4° C. before being centrifuged. The insulin content of the supernatant was then determined using a commercially available ELISA kit (Alpco). […] At 8 weeks, blood was taken for measurement of glycosylated hemoglobin levels, pancreata taken for measurements of pancreatic insulin content, and thoracic aortae taken for determination of endothelium-dependent relaxant reactivity. There was no difference in the degree of hyperglycemia and glycosylated hemoglobin, and in the degree of pancreatic insulin loss between vehicle and PJ34 treated diabetic animals. […] Sections were treated with 0.3% hydrogen peroxide for 15 min to block endogenous peroxidase activity and then rinsed briefly in PBS. Non-specific binding was blocked by incubating the slides for 1 h in PBS containing 2% horse serum. To detect poly(ADP-ribose), a routine histochemical procedure was applied, as previously described (Scott et al., Ann. Neurol. 45: 120-124, 1999) with minor modifications, as follows: Mouse monoclonal anti-poly(ADP-ribose) antibody (Alexis, San Diego, Calif.) and isotype-matched control antibody were applied in a dilution of 1:100 for 2 h at room temperature. Following extensive washing (5×5 min) with PBS, immunoreactivity was detected with a biotinylated goat anti-rabbit secondary antibody and the avidin-biotin-peroxidase complex (ABC), both supplied in the Vector Elite kit (Vector Laboratories, Burlingame, Calif.). Color was developed using Ni-DAB substrate (95 mg diaminobenzidine, 1.6 g NaCl, 2 g nickel sulfate in 200 ml 0.1 M acetate buffer). Sections were then counterstained with nuclear fast red, dehydrated and mounted in Permount. Photomicrographs were taken with a Zeiss Axiolab microscope equipped with a Fuji HC-300C digital camera. Detection of nitrotyrosine in aorta rings was carried out as described above for poly(ADP-ribose) staining except that rabbit anti-nitrotyrosine polyclonal antibody was used as the primary antibody. […] Cells were rehydrated in PBS, blocked in 2% goat serum (1 h, room temperature) and incubated in anti-nitrotyrosine (1:100 dilution) for 2 h. Subsequent steps of the staining procedure were identical to the tissue staining. Color was developed with Vector Red substrate, and slides were mounted in glycerol.
# MIP-1α = experiment: LPS-stimulated J774 macrophages: MIP-1α production; assay type: cell-based
# Source text: as §1, §2
# rat = experiment: Middle cerebral artery occlusion/reperfusion
# Method: Occlusion lasted for 2 hours, followed by reperfusion for 24 hours. Infarct size was quantified with tetrazolium staining, and survival and neurological scores were monitored.
# [3] = J774 macrophages exposed to LPS
# [4] = 10 mg/kg per os once a day from week 1, at 8 weeks
smiles,measurement,setting,value
"CN(C)CC(=O)Nc1ccc2[nH]c(=O)c3ccccc3c2c1 [PJ34, N-(6-oxo-5,6-dihydro-phenanthridin-2-yl)-N,N-dimethylacetamide]",production of the pro-inflammatory cytokine TNF-α (in words),TNF-α; [3],inhibited
same,EC50,"TNF-α; Mus musculus, J774, LPS 10 μg/ml, 30 min pretreatment 0.1 to 30 μM, measured at 24 h, mean±SEM n=3-6, read-out: Inhibition of TNF-α (J774)",5.4 ± 0.6 µM
same,endotoxin-induced mortality,Balb/c mice,50%
same,myocardial performance (in words),Lewis rats; data not shown,markedly enhanced
same,Basal coronary bloodflow,"Lewis rats; 1 h after transplant, vehicle 2.8 ± 0.3",4.1 ± 0.4 mL/min
same,Acetylcholine stimulated coronary bloodflow,"Lewis rats; 1 h after transplant, vehicle 3.5 ± 0.3",6.5 ± 0.5 mL/min
same,Basal coronary bloodflow,"Lewis rats; 24 h after transplant, vehicle 3.9 ± 0.3",4.2 ± 0.2 mL/min
same,Acetylcholine stimulated coronary bloodflow,"Lewis rats; 24 h after transplant, vehicle 6.1 ± 0.4",8.2 ± 0.8 mL/min
same,impairment in endothelium-dependent relaxation by high glucose,[1],prevented
same,EC50,"thymocytes; Thymocyte, peroxynitrite 30 μM, 30 min pretreatment 0.1 to 30 μM, measured at 6 h, mean±SEM n=3-6, read-out: Enhancement of cell viability (thymocyte)",0.2 ± 0.1 µM
same,oxidant-induced suppression of the viability of the cells (in words),thymocytes; isolated thymocytes exposed to peroxynitrite or hydrogen peroxide,prevented
same,degree of hyperglycemia (blood glucose) vs vehicle,"[2]; 10 mg/kg per os once a day from week 1, 0-8 weeks",no difference
same,degree of pancreatic insulin loss vs vehicle,[2]; [4],no difference
same,glycosylated hemoglobin vs vehicle,[2]; [4],no difference
same,PARS activation (poly(ADP-ribose) staining) in diabetic endothelium,[2]; 8 weeks,abolished
same,tyrosine nitration (nitrotyrosine immunostaining) in diabetic rings,[2]; 8 weeks,not affected
same,vascular reactivity of normal (non-diabetic) mice,"[2]; chronic treatment 8 weeks, same regimen, not shown",did not affect
same,acetylcholine induced endothelium-dependent relaxant ability of thoracic aortic rings,"[2]; diabetic animals at 8 weeks, 10 mg/kg per os daily, P<0.01 vs vehicle",normalized
same,production of the chemokine MIP-1α (in words),MIP-1α; [3],inhibited
same,EC50,"MIP-1α; Mus musculus, J774, LPS 10 μg/ml, 30 min pretreatment 0.1 to 30 μM, measured at 3 h, mean±SEM n=3-6, read-out: Inhibition of MIP-1α (J774)",10.2 ± 1.4 µM
same,reduction of the size of brain infarction,rat; 10 mg/kg i.v. at 2 h after the start of reperfusion,55±8%
same,reduction of the size of brain infarction,rat; 10 mg/kg i.v. at the time of reperfusion (5 min before start),74±6%
same,mortality over 24 hours (in words),"rat; 2 hours occlusion, 24 hours reperfusion, 10 mg/kg i.v., 73% mortality in control or vehicle",no animals died
same,neurological deficit (scale of 1-4),"rat; 24 h, vehicle survivors scored 4",no detectable deficit
